Measured values reported in patent US5756512A, “Treatment of non-small cell lung carcinoma” (SmithKline Beecham Corporation, priority 1996, dated 1998).

Columns and labels:
DNA topoisomerase I = settings: background statement; cited from earlier work
[1] = system: non-small cell lung carcinoma; experiment: clinical response, patient with metastatic non-small cell lung carcinoma, tumor size by CAT scan; assay type: in vivo, human; settings: for response to pretreatment: pretreatment with VP-16 (etoposide) and cisplatin, same patient before topotecan
Description: One human patient with metastatic non-small cell lung carcinoma, who was refractory to pretreatment with VP-16 (etoposide) and cisplatin, received a course of therapy comprising intravenous administration of 1.5 mg of topotecan/m^2 of body surface area per day for five consecutive days. This course of therapy was repeated at least five more times at twenty-one day intervals (from the date of initiation of therapy) for a total of at least […] treatments. Tumor size regression was evaluated by CAT (computerized axial tomography) scan.

[2] = system: non-small cell lung carcinoma; experiment: clinical response, second patient with non-small cell lung carcinoma; assay type: in vivo, human
[3] = qualitative statement; cited from earlier work
[4] = stability of diluted topotecan solutions in plastic bags at room temperature (percentage of initial topotecan remaining); assay type: physicochemical; settings: 0 hrs
Description: Stability--Shelf life surveillance of the intact vials is ongoing. Because the single-use lyophilized dosage form contains no antibacterial preservatives, it is advised that the reconstituted solution be discarded eight hours after initial entry into the vial. Further dilutions of the reconstituted solution to concentrations of 0.02 mg/ml and 0.1 mg.ml in 5% Dextrose Injection, USP, ("D5W") or 0.9% Sodium Chloride Injection, USP, ("NS") in plastic bags stored at room temperature yielded the following stability results:
PERCENTAGE OF INITIAL TOPOTECAN REMAINING IN SOLUTION

For `CC[C@@]1(O)C(=O)OCc2c1cc1n(c2=O)Cc2cc3ccccc3nc2-1` [camptothecin, reference compound], the “inhibition of topoisomerase I” value (DNA topoisomerase I) is listed as “known to inhibit topoisomerase I”.

With `N.N.[Cl][Pt][Cl]` [cisplatin] the response to pretreatment [1] was “refractory”.

With `COc1cc([C@@H]2c3cc4c(cc3[C@@H](O[C@@H]3O[C@@H]5CO[C@@H](C)O[C@H]5[C@H](O)[C@H]3O)[C@H]3COC(=O)[C@H]23)OCO4)cc(OC)c1O` [etoposide] the response to pretreatment [1] was “refractory”.

In the case of `CC(O)CCC(=O)c1ccoc1` (stereo not drawn) [ipomeanol, reference compound], the “response to previous ipomeanol” value ([2]; same patient before topotecan) is reported as “failed to respond”.

For `CC[C@@]1(O)C(=O)OCc2c1cc1n(c2=O)Cc2cc3c(CN(C)C)c(O)ccc3nc2-1` [topotecan, (S)-9-dimethylaminomethyl-10-hydroxycamptothecin], the “response (measurable tumor size regression)” value ([2]; one patient, prior radiation and ipomeanol, at least one course i.v. 1.5 mg/m^2 per day, five consecutive days) is listed as “a temporary response (measurable tumor size regression) was observed”, the “inhibition of topoisomerase I” value (DNA topoisomerase I) is listed as “specific inhibitor of DNA topoisomerase I” and the water solubility [3] is listed as “water-soluble”. The “Percentage of initial topotecan remaining in solution” value ([4]; D5W, 0.02 mg/ml) was 100.00%, the “Percentage of initial topotecan remaining in solution” value ([4]; D5W, 0.1 mg/ml) was 100.00% and the “Percentage of initial topotecan remaining in solution” value ([4]; NS, 0.02 mg/ml) was 100.00%. For the same molecule, the “Percentage of initial topotecan remaining in solution” value ([4]; NS, 0.1 mg/ml) was 100.00% and the “tumor size regression (CAT scan)” value ([1]; one patient refractory to VP-16 and cisplatin, i.v. 1.5 mg/m^2 per day, five consecutive days, repeated at twenty-one day intervals, after six treatment regimen) was “a complete regression of the disease was observed”.
